The values below come from patent US20240336608A1, “IL4I1 INHIBITORS AND METHODS OF USE” (Merck Sharp & Dohme LLC, priority 2023, published 2024).

Usually EC50 stands for the concentration that produces a half-maximal response.

In the assay the target is T1, recombinant IL4I1 (Homo sapiens, UniProt Q96RQ9).
T1 construct: purchased R&D Systems 5684-AO-020
T1 sequence (Q96RQ9 22-567): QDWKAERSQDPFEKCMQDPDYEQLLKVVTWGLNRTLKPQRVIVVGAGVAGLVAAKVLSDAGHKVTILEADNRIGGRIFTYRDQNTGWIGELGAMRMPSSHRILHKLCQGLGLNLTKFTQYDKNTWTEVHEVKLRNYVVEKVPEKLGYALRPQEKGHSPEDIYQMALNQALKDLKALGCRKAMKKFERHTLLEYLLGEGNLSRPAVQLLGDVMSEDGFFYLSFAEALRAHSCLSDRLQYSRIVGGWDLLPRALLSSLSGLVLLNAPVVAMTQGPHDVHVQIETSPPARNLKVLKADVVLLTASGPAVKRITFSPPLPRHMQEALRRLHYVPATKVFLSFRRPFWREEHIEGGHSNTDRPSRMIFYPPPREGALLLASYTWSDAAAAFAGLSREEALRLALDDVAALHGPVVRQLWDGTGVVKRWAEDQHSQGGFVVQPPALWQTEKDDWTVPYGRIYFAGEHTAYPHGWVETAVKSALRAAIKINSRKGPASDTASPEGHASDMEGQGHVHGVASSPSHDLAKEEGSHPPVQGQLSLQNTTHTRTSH
Kind of assay: IL4I1 Enzymatic Assay (Amplex Red/HRP coupled detection of H2O2, fluorescence). Type of assay: biochemical. The note with it: 1 nM recombinant IL4I1; four-hour pre-incubation with compound; 1 mM each Phe, Tyr, Trp; ten-point titration. The protocol:
Interleukin 4 inducible protein 1 (IL4I1) is an L-amino oxidase that catalyzes the oxidation of aromatic residues (Phe, Trp and Tyr): L-amino acid+H2O+O2→2-oxo acid+NH3+H2O2. Equal molar of H2O2 and the corresponding alpha-ketoacid are produced when IL4I1 and substrate are added. In this assay, the hydrogen peroxide generated by IL4I1 is then detected through a coupled reaction with Amplex Red (10-acetyl-3,7-dihydroxyphenoxazine) and […] (HRP) to produce Resorufin product that could be detected in the form of fluorescence signals. The assessment of the inhibitory effect of small molecules (EC50) on IL4I1 is measured by the effectiveness of the compounds to inhibit the production of H202.
Using this assay, the potency (EC50) of each compound was determined from a ten-point (1:3 serial dilution) titration curve using the following outlined procedure. To each well of a black flat-bottom Greiner (Cat #781076) 384 well-plate, 125 nL of compound (0.5% DMSO in final assay volume of 25 μL) was dispensed, followed by the addition of 12.5 μL of 1× assay buffer (50 mM Hepes 7.0 and 0.005% Tween20 (Sigma, Cat #P8341; low peroxide grade)) containing 2 nM of recombinant IL4I1 (R&D Systems, Cat #5684-AO-020). Plates were placed in an ambient temperature humidified chamber for a four-hour pre-incubation with compound. Subsequently, each reaction was initiated by the addition of 12.5 μL 1× assay buffer containing 2 mM of each aromatic amino acids (Phe/Tyr/Trp), 0.1 mM Amplex Red and 2 U/mL of HRP. The final reaction in each well of 25 μL consists of 1 nM of IL4I1, 1 mM of each residue (Phe, Tyr and Trp), 0.05 mM Amplex Red and 1 U/mL of HRP. It should be noted that the concentrations of Amplex Red and HRP used here are in excess such that the conversion of H2O2 to Resorufin product occurs instantaneously and non-rate limiting. Reactions were allowed to proceed for 120 minutes followed by fluorescence readout on a Spectramax with the following set parameters: 544 nm excitation/590 nm emission, 570 nm cutoff (EnVision is an alternative reader). Dose-response curves were generated by plotting percent effect (% inhibition; Y-axis) vs. Log10 compound concentrations (X-axis). EC50 values were calculated using a non-linear regression, four-parameters sigmoidal dose-response model and are shown in Table 16.
In the case of `CC(C)c1cc(C(=O)NCc2nnc(-c3ccccc3)s2)n[nH]1` [Example 2, 5-isopropyl-N-[(5-phenyl-1,3,4-thiadiazol-2-yl)methyl]-1H-pyrazole-3-carboxamide], the EC50 turned out to be 197 nM. Under `CC(O)c1cc(C(=O)NCc2nnc(-c3ccccc3)s2)no1` (stereo not drawn) [Example 3, 5-(1-hydroxyethyl)-N-[(5-phenyl-1,3,4-thiadiazol-2-yl)methyl]isoxazole-3-carboxamide] stands 9 nM; under `O=C(NCc1nnc(-c2ccccc2)s1)c1cc(CO)n[nH]1` [Example 4, 3-(hydroxymethyl)-N-((5-phenyl-1,3,4-thiadiazol-2-yl)methyl)-1H-pyrazole-5-carboxamide], 69 nM; under `O=C(NCc1nnc(-c2ccccc2)s1)c1cn([C@H]2CO[C@H]3[C@@H]2OC[C@H]3O)nn1` [Example 5, 1-[(3S,3aR,6R,6aR)-6-hydroxy-2,3,3a,5,6,6a-hexahydrofuro[3,2-b]furan-3-yl]-N-[(5-phenyl-1,3,4-thiadiazol-2-yl)methyl]triazole-4-carboxamide], 164 nM.

With `O=C(NCc1nnc(-c2ccccc2)s1)c1cc2c(s1)CCC2` [Example 6, N-[(5-phenyl-1,3,4-thiadiazol-2-yl)methyl]-5,6-dihydro-4H-cyclopenta[b]thiophene-2-carboxamide], the EC50 was 62 nM.

As for `CC(C)Cc1cc(C(=O)NCc2nnc(-c3ccccc3)s2)no1` [Example 7, 5-isobutyl-N-[(5-phenyl-1,3,4-thiadiazol-2-yl)methyl]isoxazole-3-carboxamide], the EC50 is 8 nM.

Take `CCOc1ccsc1C(=O)NCc1nnc(-c2ccccc2)s1` [Example 8, 3-ethoxy-N-[(5-phenyl-1,3,4-thiadiazol-2-yl)methyl]thiophene-2-carboxamide]: the EC50 was determined as 3 nM.

For the compound `CC(C)(C)c1cc(C(=O)NCc2nnc(-c3ccccc3)s2)[nH]n1` [Example 9, 3-(tert-butyl)-N-((5-phenyl-1,3,4-thiadiazol-2-yl)methyl)-1H-pyrazole-5-carboxamide], the EC50 came to 480 nM. For the compound `Cc1csc(C(=O)NCc2nnc(-c3ccccc3)s2)c1` [Example 10, 4-methyl-N-[(5-phenyl-1,3,4-thiadiazol-2-yl)methyl]thiophene-2-carboxamide], the EC50 is 10 nM. As to `O=C(NCc1nnc(-c2ccccc2)s1)c1c[nH]c(C2CC2)n1` [Example 11, 2-cyclopropyl-N-((5-phenyl-1,3,4-thiadiazol-2-yl)methyl)-1H-imidazole-4-carboxamide], the EC50 came to 265 nM. Regarding `Cc1ccc(C(=O)NCc2nnc(-c3ccccc3)s2)s1` [Example 12, 5-methyl-N-[(5-phenyl-1,3,4-thiadiazol-2-yl)methyl]thiophene-2-carboxamide], the 50% effective concentration (EC50) worked out at 90 nM. In the case of `Cc1cccn2cc(C(=O)NCc3nnc(-c4ccccc4)s3)nc12` [Example 13, 8-methyl-N-((5-phenyl-1,3,4-thiadiazol-2-yl)methyl)imidazo[1,2-a]pyridine-2-carboxamide], the EC50 amounted to 341 nM. As to `Cn1ccc(C(=O)NCc2nnc(-c3ccccc3)s2)n1` [Example 14, 1-methyl-N-[(5-phenyl-1,3,4-thiadiazol-2-yl)methyl]pyrazole-3-carboxamide], the EC50 came out at 291 nM. For `Cc1ccsc1C(=O)NCc1nnc(-c2ccccc2)s1` [Example 15, 3-methyl-N-[(5-phenyl-1,3,4-thiadiazol-2-yl)methyl]thiophene-2-carboxamide], the EC50 came to 153 nM. Take `O=C(NCc1nnc(-c2ccccc2)s1)c1csc(Cc2ccccc2)n1` [Example 16, 2-benzyl-N-((5-phenyl-1,3,4-thiadiazol-2-yl)methyl)thiazole-4-carboxamide]: the EC50 is 84 nM. As for `Cc1ccc(C(=O)NCc2nnc(-c3ccccc3)s2)[nH]1` [Example 17, 5-methyl-N-[(5-phenyl-1,3,4-thiadiazol-2-yl)methyl]-1H-pyrrole-2-carboxamide], the EC50 came to 474 nM.

Regarding `CCn1ccc(C(=O)NCc2nnc(-c3ccccc3)s2)c1` [Example 18, 1-ethyl-N-[(5-phenyl-1,3,4-thiadiazol-2-yl)methyl]pyrrole-3-carboxamide], the EC50 was determined as 40 nM. In the case of `Cn1cc(C(=O)NCc2nnc(-c3ccccc3)s2)nn1` [Example 19, 1-methyl-N-[(5-phenyl-1,3,4-thiadiazol-2-yl)methyl]triazole-4-carboxamide], the concentration giving a half-maximal response (EC50) was found to be 18 nM. The value for `Cc1c(C(=O)NCc2nnc(-c3ccccc3)s2)oc2cccc(O)c12` [Example 20, 4-hydroxy-3-methyl-N-[(5-phenyl-1,3,4-thiadiazol-2-yl)methyl]benzofuran-2-carboxamide] was 340 nM; that for `CC(C)Cc1cc(C(=O)NCc2nnc(-c3ccccc3)s2)[nH]n1` [Example 21, 3-isobutyl-N-((5-phenyl-1,3,4-thiadiazol-2-yl)methyl)-1H-pyrazole-5-carboxamide] was 209 nM; that for `O=C(NCc1nnc(-c2ccccc2)s1)c1scc2c1OCCO2` [Example 22, N-[(5-phenyl-1,3,4-thiadiazol-2-yl)methyl]-2,3-dihydrothieno[3,4-b][1,4]dioxine-5-carboxamide] was 27 nM. In the case of `Cc1cc(C(=O)NCc2nnc(-c3ccccc3)s2)no1` [Example 23, 5-methyl-N-[(5-phenyl-1,3,4-thiadiazol-2-yl)methyl]isoxazole-3-carboxamide], the EC50 is 207 nM. As for `Cc1onc(C(=O)NCc2nnc(-c3ccccc3)s2)c1C` [Example 24, 4,5-dimethyl-N-[(5-phenyl-1,3,4-thiadiazol-2-yl)methyl]isoxazole-3-carboxamide], the EC50 came to 93 nM. In the case of `Cc1cc(C(=O)NCc2nnc(-c3ccccc3)s2)on1` [Example 25, 3-methyl-N-[(5-phenyl-1,3,4-thiadiazol-2-yl)methyl]isoxazole-5-carboxamide], the EC50 is 76 nM. Take `CC(C)c1cc(C(=O)NCc2nnc(-c3ccccc3)s2)no1` [Example 26, 5-isopropyl-N-[(5-phenyl-1,3,4-thiadiazol-2-yl)methyl]isoxazole-3-carboxamide]: the EC50 worked out at 43 nM. As for `Cc1n[nH]c(C(=O)NCc2nnc(-c3ccccc3)s2)n1` [Example 27, 3-methyl-N-((5-phenyl-1,3,4-thiadiazol-2-yl)methyl)-1H-1,2,4-triazole-5-carboxamide], the EC50 was determined as 292 nM. As for `O=C(NCc1nnc(-c2ccccc2)s1)c1cc(C(F)(F)F)n[nH]1` [Example 28, N-[(5-phenyl-1,3,4-thiadiazol-2-yl)methyl]-3-(trifluoromethyl)-1H-pyrazole-5-carboxamide], the EC50 came to 710 nM. For the compound `COc1ccsc1C(=O)NCc1nnc(-c2ccccc2)s1` [Example 29, 3-methoxy-N-[(5-phenyl-1,3,4-thiadiazol-2-yl)methyl]thiophene-2-carboxamide], the EC50 was 10 nM. As for `O=C(NCc1nnc(-c2ccccc2)s1)c1cn([C@@H]2CO[C@H]3[C@@H]2OC[C@H]3O)nn1` [Example 30, 1-((3R,3aR,6R,6aR)-6-hydroxyhexahydrofuro[3,2-b]furan-3-yl)-N-((5-phenyl-1,3,4-thiadiazol-2-yl)methyl)-1H-1,2,3-triazole-4-carboxamide], the EC50 was found to be 130 nM. Under `O=C(NCc1nnc(-c2ccccc2)s1)c1n[nH]c(C2CC2)c1F` [Example 31, 5-cyclopropyl-4-fluoro-N-[(5-phenyl-1,3,4-thiadiazol-2-yl)methyl]-1H-pyrazole-3-carboxamide] stands 42 nM.
